Test results published in US20100093811A1 (priority 2007, published 2010).

Columns and labels:
[1] = test system: acute HIV infection of T-lymphoid cells; experiment: Assay for inhibition of HIV replication (spread assay); format: cell-based, HIV-1; details: Human immunodeficiency virus 1, T-lymphoid; read-out: Spread - IC95
Protocol: • Assay for Inhibition of HIV Replication
Assays for the inhibition of acute HIV infection of T-lymphoid cells were conducted in accordance with Vacca, J. P. et al., Proc. Natl. Acad. Sci. USA 1994, 91: 4096.

wild-type HIV-1 protease = wild-type HIV-1 protease (Human immunodeficiency virus type 1 group M subtype B, UniProt P04585); experiment: Assay for inhibition of microbial expressed HIV protease; format: biochemical; details: wild-type HIV-1 protease expressed in E. coli, peptide substrate, pH 5.5; read-out: Enzyme Inhibition - IC50
In short: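 Inhibition taken from HPLC (C18) product peak areas after phosphoric acid quench. Reaction: 440 micromolar Val-Ser-Gln-Asn-(betanapthyl)Ala-Pro-Ile-Val peptide, 5 pM E. coli-made protease, 1 h at 30° C, following 30 min room-temperature inhibitor preincubation in pH 5.5 acetate/NaCl/BSA buffer.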

| Compound | IC95 [1] [nM] | IC50 (wild-type HIV-1 protease) [nM] |
| --- | --- | --- |
| COC(=O)N[C@@H](Cc1cccc2ccccc12)C(=O)N[C@H](CCC[C@@H](CO)N(CCC(C)C)S(=O)(=O)c1ccc(N)cc1)C1CC1 [Example E9, methyl [(1S)-2-({(1R,5S)-5-[[(4-aminophenyl)sulfonyl](3-methylbutyl)amino]-1-cyclopropyl-6-hydroxyhexyl}amino)-1-(1-naphthylmethyl)-2-oxoethyl]carbamate] | 117 | 0.354 |
| COC(=O)N[C@H](C(=O)N[C@H](CCC[C@@H](CO)N(C(C)C)S(=O)(=O)c1ccc(CO)cc1)C1CC1)C(c1ccccc1)c1ccccc1 [Example I3, N-{(1R,5S)-1-cyclopropyl-6-hydroxy-5-[{[4-(hydroxymethyl)phenyl]sulfonyl}(isopropyl)amino]hexyl}-Nα-(methoxycarbonyl)-β-phenyl-L-phenylalaninamide] | 50 | 0.134 |
| COC(=O)N[C@H](C(=O)N[C@H](CCC[C@@H](CO)N(CC(C)C)S(=O)(=O)c1ccc(CO)cc1)C1CC1)C(c1ccccc1)c1ccccc1 [Example J22] | 15 | 0.032 |
| COC(=O)N[C@H](C(=O)N[C@@H](C)CCC[C@@H](CO)N(C(C)C)S(=O)(=O)c1ccc(CO)cc1)C(c1ccccc1)c1ccccc1 [Example K1, N-{(1S,5S)-6-hydroxy-5-[{[4-(hydroxymethyl)phenyl]sulfonyl}(isopropyl)amino]-1-methylhexyl}-Nα-(methoxycarbonyl)-β-phenyl-L-phenylalaninamide] | 13 | 0.018 |
| COC(=O)N[C@H](C(=O)N[C@H](CCC[C@@H](CO)N(CCC(C)C)S(=O)(=O)c1ccc(N)c(F)c1)C(C)C)C(c1ccccc1)c1ccccc1 [Example D16, N-{(1R,5S)-5-[[(4-amino-3-fluorophenyl)sulfonyl](3-methylbutyl)amino]-6-hydroxy-1-isopropylhexyl}-Nα-(methoxycarbonyl)-β-phenyl-L-phenylalaninamide] | 152 | 0.329 |
| COC(=O)NC(C(=O)N[C@@H](C)CCC[C@@H](CO)N(C(C)C)S(=O)(=O)c1ccc(CO)cc1)C(c1cccc(F)c1)c1cccc(F)c1 (stereo partly drawn) [Example J46, 3-fluoro-β-(3-fluorophenyl)-N-{(1S,5S)-6-hydroxy-5-[{[4-(hydroxymethyl)phenyl]sulfonyl}(isopropyl)amino]-1-methylhexyl}-Nα-(methoxycarbonyl)phenylalaninamide] | 18 | 0.01 |
| CC[C@@H](CCC[C@@H](CO)N(CCC(C)C)S(=O)(=O)c1ccc(N)cc1)NC(=O)[C@@]1(NC(=O)OC(C)(C)C)C[C@@H]1c1ccccc1 [Example F9, tert-butyl {(1R,2R)-1-[({(1S,5S)-5-[[(4-aminophenyl)sulfonyl](3-methylbutyl)amino]-1-ethyl-6-hydroxyhexyl}amino)carbonyl]-2-phenylcyclopropyl}carbamate] | 76 | 0.064 |
| Cc1ccc(S(=O)(=O)N(CCC(C)C)[C@H](CO)CC(C)CCNC(=O)[C@@H](N)C(c2ccccc2)c2ccccc2)cc1 (stereo partly drawn) [Example B1, (2S)-2-amino-N-((5S)-6-hydroxy-3-methyl-5-{(3-methylbutyl)[(4-methylphenyl)-sulfonyl]amino}hexyl)-3,3-diphenylpropanamide] | 500 | 0.51 |
| CC[C@@H](CCC[C@@H](CO)N(C(C)C)S(=O)(=O)c1ccc(CO)cc1)NC(=O)[C@@H](N)C(c1ccccc1)c1ccccc1 [Example J36, N-{(1S,5S)-1-ethyl-6-hydroxy-5-[{[4-(hydroxymethyl)phenyl]sulfonyl}(isopropyl)amino]hexyl}-β-phenyl-L-phenylalaninamide] | 27 | 0.098 |
| COC(=O)N[C@H](C(=O)N[C@H](CCC[C@@H](CO)N(CCC(C)C)S(=O)(=O)c1ccc(CO)cc1)C(F)(F)C(F)(F)F)C(c1ccccc1)c1ccccc1 [Example J12, N-[(1R,5S)-6-hydroxy-5-[{[4-(hydroxymethyl)phenyl]sulfonyl}(3-methylbutyl)amino]-1-(pentafluoroethyl)hexyl]-Nα-(methoxycarbonyl)-β-phenyl-L-phenylalaninamide] | 43 | 0.036 |
